SMILES strings stand for the structures. Values after ≈ are worked out from the molar mass of the structure shown. Read-outs that look alike come from different tables or passages of the source.

One experiment deals with C. albicans. Description: Antifungal Activity Assay (broth microtiter MIC), C. albicans. The class given is cell-based, Candida albicans. To be noted: Candida albicans, ATCC90028, 48 h. An outline of the steps: (§1)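 Susceptibility was determined by CLSI M27-A3 broth microdilution in RPMI 1640 buffered with MOPS. Growth inhibition was scored visually after 48 h.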
The test system of another experiment is Diplodia maydis (Dm). Briefly: Growth inhibition assay of fungal pathogens, Dm. Format: cell-based. Particulars: Stenocarpella maydis, 48 h, read-out: Concentration at 90% Inhibition Dm, Diplodia maydis. An outline of the steps: (§2)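 Read-out: OD600 plus visual rating at 24 and 48 h, blank (media + 2% DMSO) subtracted. Percent inhibition was derived at 48 h versus the 2% DMSO control. Spores were grown in 17% V8 broth with compound at 50/10/2 or 2/0.4/0.08 ppm final.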

In a further experiment the test system is C. parapsilosis. Briefly: Antifungal Activity Assay (broth microtiter MIC), C. parapsilosis. The class given is cell-based, Candida parapsilosis. To be noted: Lodderomyces parapsilosis, ATCC22019, 48 h. In outline:
as §1

A further experiment deals with Botrtyis cinerea (Bc). Briefly: Growth inhibition assay of fungal pathogens, Bc. To be noted: 48 h, read-out: Concentration at 90% Inhibition Bc, Botrtyis cinerea. The class given is cell-based. An outline of the steps:
as §2

In experiment [1] the test system is Collectotrichum graminicola (Cg). Description: Growth inhibition assay of fungal pathogens, Cg. The class given is cell-based. Particulars: 48 h, read-out: Concentration at 90% Inhibition Cg, Collectotrichum graminicola. An outline of the steps: as §2
The subject of another experiment is Septoria tritici (St). Description: Growth inhibition assay of fungal pathogens, St. The class given is cell-based. To be noted: Zymoseptoria tritici, 48 h, read-out: Concentration at 90% Inhibition St, Septoria tritici. In outline:
as §2

In experiment [2] the test system is Phytophthora capsici (Pc). Briefly: Growth inhibition assay of fungal pathogens, Pc. The class given is cell-based. To be noted: 48 h. In outline:
as §2

The test system of the next experiment is Rhizoctonia solani (Rs). Briefly: Growth inhibition assay of fungal pathogens, Rs. Format: cell-based. Particulars: 48 h.
The next experiment addresses human (hACC2) (Homo sapiens, UniProt O00763). Description: In vitro ACC inhibition assay (ADP-Glo), hACC2. The class given is biochemical. To be noted: 5 nM ACC2, 20 μM ATP, 20 μM acetyl-CoA. Here is the method: The detailed procedure is as follows. […] 10 μL ADP glo reagent was added. […] 20 μL kinase detection reagent was added.
On the technique in general: ADP-Glo turns the ADP formed in a reaction into a luminescent signal.

The mark [3] stands for this setting: read-out: MIC, C. albicans ATCC 90028, Table 3a, 3 replicates, MIC recorded at 48 h.
The mark [4] stands for this setting: read-out: MIC, C. albicans ATCC 90028, Table 3b (additional results), 3 replicates, MIC recorded at 48 h.
[5] abbreviates: growth inhibition at 48 hours vs 2% DMSO control.
The mark [6] stands for this setting: growth inhibition vs 2% DMSO control at 48 hours.
Where [7] appears, read: read-out: MIC, C. parapsilosis ATCC 22019, Table 3a, 3 replicates, MIC recorded at 48 h.
[8] abbreviates: read-out: MIC, C. parapsilosis ATCC 22019, Table 3b (additional results), 3 replicates, MIC recorded at 48 h.
Where [9] appears, read: read-out: Concentration at 90% Inhibition Pc, Phytophthora capsici, growth inhibition at 48 hours vs 2% DMSO control.
[10] abbreviates: read-out: Concentration at 90% Inhibition Pc, Phytophthora capsici, growth inhibition vs 2% DMSO control at 48 hours.
The mark [11] stands for this setting: read-out: Concentration at 90% Inhibition Rs, Rhizoctonia solani, mycelial plugs, growth inhibition at 48 hours vs 2% DMSO control.
The mark [12] stands for this setting: read-out: Concentration at 90% Inhibition Rs, Rhizoctonia solani, mycelial plugs, growth inhibition vs 2% DMSO control at 48 hours.

Chain of human (hACC2) (O00763 whole entry): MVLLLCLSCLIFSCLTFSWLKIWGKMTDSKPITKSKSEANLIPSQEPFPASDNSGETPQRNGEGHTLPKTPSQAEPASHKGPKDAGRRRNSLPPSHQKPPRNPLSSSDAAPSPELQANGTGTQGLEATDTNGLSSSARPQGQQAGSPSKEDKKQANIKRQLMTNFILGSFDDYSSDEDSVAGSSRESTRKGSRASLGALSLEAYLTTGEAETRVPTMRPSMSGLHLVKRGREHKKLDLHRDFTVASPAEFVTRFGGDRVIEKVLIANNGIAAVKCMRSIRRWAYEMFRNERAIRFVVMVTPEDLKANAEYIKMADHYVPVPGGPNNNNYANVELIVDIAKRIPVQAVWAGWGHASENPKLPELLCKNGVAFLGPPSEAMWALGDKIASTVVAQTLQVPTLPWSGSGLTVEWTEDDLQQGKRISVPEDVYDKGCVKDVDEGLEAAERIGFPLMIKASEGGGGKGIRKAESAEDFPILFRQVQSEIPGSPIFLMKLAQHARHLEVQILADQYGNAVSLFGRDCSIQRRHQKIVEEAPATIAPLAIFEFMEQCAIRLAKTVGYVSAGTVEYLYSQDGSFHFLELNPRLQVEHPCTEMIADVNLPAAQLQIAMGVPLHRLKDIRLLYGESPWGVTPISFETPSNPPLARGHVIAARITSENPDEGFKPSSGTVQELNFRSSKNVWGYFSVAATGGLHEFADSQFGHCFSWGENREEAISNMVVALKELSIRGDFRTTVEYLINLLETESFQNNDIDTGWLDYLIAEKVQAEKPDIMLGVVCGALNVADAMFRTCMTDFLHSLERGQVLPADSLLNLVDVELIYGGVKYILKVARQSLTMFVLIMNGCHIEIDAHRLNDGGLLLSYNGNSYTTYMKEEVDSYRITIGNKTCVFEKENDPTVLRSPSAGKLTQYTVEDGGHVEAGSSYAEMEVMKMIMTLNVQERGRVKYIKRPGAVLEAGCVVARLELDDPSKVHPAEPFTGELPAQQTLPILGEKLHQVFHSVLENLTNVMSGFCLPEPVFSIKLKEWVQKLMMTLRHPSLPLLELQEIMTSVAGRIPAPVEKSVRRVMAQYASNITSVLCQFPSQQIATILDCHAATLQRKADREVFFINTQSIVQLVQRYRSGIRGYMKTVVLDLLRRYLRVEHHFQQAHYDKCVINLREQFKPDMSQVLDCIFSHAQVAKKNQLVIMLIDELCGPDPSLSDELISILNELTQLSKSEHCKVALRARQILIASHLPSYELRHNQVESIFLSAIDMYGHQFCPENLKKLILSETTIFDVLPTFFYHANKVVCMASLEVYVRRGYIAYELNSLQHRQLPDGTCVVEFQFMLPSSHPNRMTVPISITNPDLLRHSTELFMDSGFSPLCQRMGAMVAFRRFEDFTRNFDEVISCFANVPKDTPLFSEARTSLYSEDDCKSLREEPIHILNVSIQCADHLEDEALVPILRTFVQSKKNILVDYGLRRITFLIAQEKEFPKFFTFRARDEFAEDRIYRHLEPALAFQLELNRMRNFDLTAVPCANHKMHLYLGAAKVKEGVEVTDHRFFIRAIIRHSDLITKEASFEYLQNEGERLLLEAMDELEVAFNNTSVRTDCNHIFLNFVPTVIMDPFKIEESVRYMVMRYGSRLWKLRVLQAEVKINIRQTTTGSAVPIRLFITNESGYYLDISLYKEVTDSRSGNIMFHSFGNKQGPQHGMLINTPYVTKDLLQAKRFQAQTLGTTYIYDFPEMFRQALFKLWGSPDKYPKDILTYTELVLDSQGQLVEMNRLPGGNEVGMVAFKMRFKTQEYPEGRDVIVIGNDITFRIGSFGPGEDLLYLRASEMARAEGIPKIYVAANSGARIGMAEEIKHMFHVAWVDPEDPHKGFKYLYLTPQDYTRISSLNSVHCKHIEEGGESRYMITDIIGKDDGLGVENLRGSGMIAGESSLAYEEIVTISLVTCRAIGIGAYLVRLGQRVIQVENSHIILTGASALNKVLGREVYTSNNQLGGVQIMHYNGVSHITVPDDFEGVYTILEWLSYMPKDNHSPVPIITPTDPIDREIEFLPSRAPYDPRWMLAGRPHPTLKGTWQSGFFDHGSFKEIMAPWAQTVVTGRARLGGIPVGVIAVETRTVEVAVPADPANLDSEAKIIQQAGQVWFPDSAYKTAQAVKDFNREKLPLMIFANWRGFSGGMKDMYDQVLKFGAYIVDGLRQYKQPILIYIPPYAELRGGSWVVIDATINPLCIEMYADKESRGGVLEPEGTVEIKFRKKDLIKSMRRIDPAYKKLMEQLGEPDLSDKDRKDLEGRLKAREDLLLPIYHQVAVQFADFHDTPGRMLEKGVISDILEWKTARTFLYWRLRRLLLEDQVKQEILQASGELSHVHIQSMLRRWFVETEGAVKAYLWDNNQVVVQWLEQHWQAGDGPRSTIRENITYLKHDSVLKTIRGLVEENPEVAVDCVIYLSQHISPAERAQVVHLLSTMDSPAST

The term MIC denotes the lowest concentration found to suppress growth. A word on the IC50: it is the midpoint of a concentration-inhibition curve. For `COc1ccc(F)cc1[C@H](Cn1c(=O)n(C(C)(C)C(=O)N2CCOCC2)c(=O)c2c(C)c(-n3nccn3)sc21)OC(C)C` [Compound I-5, (R)-1-(2-(5-fluoro-2-methoxyphenyl)-2-isopropoxyethyl)-5-methyl-3-(2-methyl-1-morpholino-1-oxopropan-2-yl)-6-(2H-1,2,3-triazol-2-yl)thieno[2,3-d]pyrimidine-2,4(1H,3H)-dione], the MIC in the experiment with C. albicans (setting [3]) was 2.1 to 4 mg/L (≈ 3.42 to 6.51 µM); in the experiment with C. albicans (setting [4]) it was 2.01 to 4 mg/L (≈ 3.27 to 6.51 µM); with C. parapsilosis (setting [7]) it was 2.1 to 4 mg/L (≈ 3.42 to 6.51 µM); in the experiment with C. parapsilosis (setting [8]) it was above 4.01 mg/L. Further, the IC90 in the experiment on Diplodia maydis (Dm) (setting [5]) was found to be 2 mg/L (≈ 3.25 µM); in the experiment on Diplodia maydis (Dm) (setting [6]), 2 mg/L (≈ 3.25 µM); in the experiment on Botrtyis cinerea (Bc) (setting [5]) it was 0.4 mg/L (≈ 0.651 µM); with Botrtyis cinerea (Bc) (setting [6]) it was 0.4 mg/L (≈ 0.651 µM); in experiment [1] (setting [5]), 2 mg/L (≈ 3.25 µM); in experiment [1] (setting [6]), 2 mg/L (≈ 3.25 µM). For the same compound, the IC90 in the experiment on Septoria tritici (St) (setting [5]) was 10 mg/L (≈ 16.3 µM); with Septoria tritici (St) (setting [6]) it was above 50 mg/L; in experiment [2] (setting [9]), above 50 mg/L; in experiment [2] (setting [10]) it was above 50 mg/L; in the experiment with Rhizoctonia solani (Rs) (setting [11]) it was 0.4 mg/L (≈ 0.651 µM); in the experiment on Rhizoctonia solani (Rs) (setting [12]), 0.4 mg/L (≈ 0.651 µM). For the same compound, the IC50 against human (hACC2) (Table 2a) lay in the range of 0.01 to 0.04 µM; at human (hACC2) (Table 2b, additional results), 0.01 to 0.04 µM.

For `COc1ccc(F)cc1[C@H](Cn1c(=O)n(C(C)(C)C(=O)N2CCCCC2)c(=O)c2c(C)c(-n3nccn3)sc21)OC(C)C` [Compound I-6, (R)-1-(2-(5-fluoro-2-methoxyphenyl)-2-isopropoxyethyl)-5-methyl-3-(2-methyl-1-oxo-1-(piperidin-1-yl)propan-2-yl)-6-(2H-1,2,3-triazol-2-yl)thieno[2,3-d]pyrimidine-2,4(1H,3H)-dione], the MIC was 0.25 to 1 mg/L (≈ 0.408 to 1.63 µM) in the experiment with C. albicans (setting [3]), 0.25 to 1 mg/L (≈ 0.408 to 1.63 µM) with C. albicans (setting [4]), 1.1 to 2 mg/L (≈ 1.8 to 3.26 µM) in the experiment on C. parapsilosis (setting [7]) and 1.01 to 2 mg/L (≈ 1.65 to 3.26 µM) with C. parapsilosis (setting [8]). Also, the IC90 (in the experiment with Diplodia maydis (Dm) (setting [5]); in the experiment with Diplodia maydis (Dm) (setting [6]); with Botrtyis cinerea (Bc) (setting [5]); in the experiment on Botrtyis cinerea (Bc) (setting [6]); in [1] (setting [5]); in [1] (setting [6])) was 0.08 mg/L (≈ 0.131 µM) in each case. The IC90 with Septoria tritici (St) (setting [5]) was 2 mg/L (≈ 3.26 µM); in the experiment on Septoria tritici (St) (setting [6]), 10 mg/L (≈ 16.3 µM); in [2] (setting [9]), above 50 mg/L; in experiment [2] (setting [10]), above 50 mg/L; with Rhizoctonia solani (Rs) (setting [11]), 0.08 mg/L (≈ 0.131 µM); with Rhizoctonia solani (Rs) (setting [12]) it was 0.08 mg/L (≈ 0.131 µM). In addition, the IC50 lay in the range of 0.01 to 0.04 µM on human (hACC2) (Table 2a) and 0.01 to 0.04 µM against human (hACC2) (Table 2b, additional results).

For the origin of these results see patent US10800791B2, “Triazole ACC inhibitors and uses thereof” (Gilead Apollo, LLC, priority 2015, dated 2020).
